“And” between values parts separate entries of the source, which are not always exact repeats. Equal values may be shown once. Read-outs that look alike come from different tables or passages of the source.

One test has as its target HDAC2 (Homo sapiens, UniProt Q92769). As to the kind of experiment: HDAC2 inhibition assay, luminometric method (HDAC-Glo I/II). The format is biochemical. On the set-up: purchased BPS Bioscience 50002. Particulars: HDAC2 0.5 nM, read-out: IC50 HDAC2 inhibition (luminescence). As for the experimental part: HDAC2 inhibition assay was performed by either the luminometric or fluorimetric method applying the following procedures. The table (Table 1) represents the details of different HDAC proteins and antibodies used in all biochemical assays.
HDAC2 inhibition assay was performed by HDAC-Glo™ I/II Assays and Screening System (Catalog# G6420, Promega Corporation, Madison, WI, USA) by the luminometric method according to the manufacturer’s protocol. […] The HDAC-2 inhibition assay was performed as previously described to determine IC values. In brief, the purified HDAC2 was diluted in HDAC assay buffer (provided with the HDAC-Glo™ I/II Assays and Screening System) to the same concentration based on their calculated molar mass. […] Next, 10 µL of JRM-28 after serial dilution was added to 10 µL of diluted HDAC2 in such a way that the final HDAC2 concentration was 0.5 nM in each well of a 384-well microplate (Greiner, Kremsmünster, Austria). After 30 min of incubation, 20 µL of the HDAC-Glo substrate/developing reagent was added to each well according to the manufacturer’s instructions. The 384-well plate was then agitated on an orbital shaker for the mixing of components in each well for another 30 min at room temperature. Finally, luminescence was measured using a POLARstar Omega plate reader (BMG Labtech, Ortenberg, Germany).

The next test has as its target T1, HDAC6 (Homo sapiens, UniProt Q9UBN7).
T1 construct: purchased BPS Bioscience 50056
T1 sequence (Q9UBN7 1-1215): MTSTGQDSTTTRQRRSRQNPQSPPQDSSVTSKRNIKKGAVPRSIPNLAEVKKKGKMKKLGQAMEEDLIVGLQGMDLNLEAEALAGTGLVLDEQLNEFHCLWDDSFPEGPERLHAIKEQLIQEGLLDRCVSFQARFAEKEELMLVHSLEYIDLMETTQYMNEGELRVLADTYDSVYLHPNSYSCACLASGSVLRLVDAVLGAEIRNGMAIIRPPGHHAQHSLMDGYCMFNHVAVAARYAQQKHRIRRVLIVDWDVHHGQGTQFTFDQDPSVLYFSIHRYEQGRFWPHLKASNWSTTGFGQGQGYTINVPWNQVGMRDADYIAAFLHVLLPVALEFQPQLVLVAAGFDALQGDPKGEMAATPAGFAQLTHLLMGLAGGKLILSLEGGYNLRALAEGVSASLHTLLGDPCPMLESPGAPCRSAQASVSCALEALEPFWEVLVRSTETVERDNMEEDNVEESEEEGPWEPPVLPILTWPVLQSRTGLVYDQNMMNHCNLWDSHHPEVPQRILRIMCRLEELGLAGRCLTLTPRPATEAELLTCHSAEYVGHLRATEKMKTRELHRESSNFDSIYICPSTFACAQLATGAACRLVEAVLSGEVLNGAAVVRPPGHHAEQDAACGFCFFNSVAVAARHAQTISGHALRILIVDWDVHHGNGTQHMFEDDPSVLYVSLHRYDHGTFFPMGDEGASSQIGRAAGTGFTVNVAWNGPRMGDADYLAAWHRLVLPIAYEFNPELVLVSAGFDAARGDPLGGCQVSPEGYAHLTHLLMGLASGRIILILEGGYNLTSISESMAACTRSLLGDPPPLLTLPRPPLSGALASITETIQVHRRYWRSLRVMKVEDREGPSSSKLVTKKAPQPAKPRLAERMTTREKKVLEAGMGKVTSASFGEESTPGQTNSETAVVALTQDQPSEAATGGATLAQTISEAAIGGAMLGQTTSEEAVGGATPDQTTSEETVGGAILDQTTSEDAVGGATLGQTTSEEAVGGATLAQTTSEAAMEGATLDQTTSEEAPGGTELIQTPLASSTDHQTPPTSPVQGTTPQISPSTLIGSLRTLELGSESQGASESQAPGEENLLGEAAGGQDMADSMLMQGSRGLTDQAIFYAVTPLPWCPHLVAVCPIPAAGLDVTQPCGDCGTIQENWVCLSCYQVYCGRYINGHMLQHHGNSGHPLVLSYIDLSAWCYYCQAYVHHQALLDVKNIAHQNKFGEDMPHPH
As to the kind of experiment: Fluorimetric HDAC inhibition assay, HDAC6. In kind it is biochemical. Particulars: reduced with DTT. As for the experimental part:
The inhibition of HDAC1, 2, 3, and 6 by JRM-28 was fluorometrically measured using the HDAC Fluorogenic Assay Kit (Catalog# 50034) by BPS bioscience. Purified recombinant human HDAC1 (Cat# 50051), HDAC3 (Cat# 50003), and HDAC6 (Cat# 50056) were also obtained from BPS Bioscience. The enzyme inhibition assay was performed according to the manufacturer’s protocol. […] Purified recombinant HDAC2 (supplied with the fluorogenic kit) was diluted to 6 ng/µL (5 µL/well with the supplied HDAC assay buffer). HDAC 1, 3, and 6 were also diluted to the optimized concentration (5 µL/well) with the HDAC assay buffer. The activity of JRM-28 was measured along with DTT control and DMSO as blank. After adding 5 µL of the diluted HDAC enzymes in designated wells, the 96-well plate (supplied with the kit) was incubated at 37 °C. Then, the reaction was initiated by adding 5 µL of diluted HDAC substrate to each well, followed by another incubation at 37 °C for 30 min. Next, 50 µL of the developer reagent was added to each well and incubated at room temperature for another 15 min. Finally, fluorescence was measured by a microplate absorbance spectrophotometer (PerkinElmer Enspire 2300 Multilabel Multimode Microplate Reader) with an excitation at λ = 485 nm and detection at λ = 528 nm.

HDAC2, sequence (Q92769 whole entry): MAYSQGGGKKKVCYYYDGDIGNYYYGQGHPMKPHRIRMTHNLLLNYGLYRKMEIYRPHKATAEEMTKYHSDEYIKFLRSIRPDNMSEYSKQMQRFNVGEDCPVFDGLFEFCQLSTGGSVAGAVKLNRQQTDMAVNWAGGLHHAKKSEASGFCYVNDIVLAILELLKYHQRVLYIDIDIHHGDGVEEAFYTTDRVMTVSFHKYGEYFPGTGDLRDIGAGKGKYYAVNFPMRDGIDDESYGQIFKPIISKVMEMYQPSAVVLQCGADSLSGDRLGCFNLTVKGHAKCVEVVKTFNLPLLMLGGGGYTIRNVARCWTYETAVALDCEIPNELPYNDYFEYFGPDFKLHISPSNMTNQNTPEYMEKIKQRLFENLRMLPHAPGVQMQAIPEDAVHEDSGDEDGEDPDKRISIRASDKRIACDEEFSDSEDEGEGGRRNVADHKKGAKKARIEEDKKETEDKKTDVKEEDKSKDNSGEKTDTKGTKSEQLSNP

The term IC50 denotes the concentration that gives 50% inhibition. `CN(C(=O)CC(O)/C=C/CCSSCC/C=C/C(O)CC(=O)N(C)c1ccccc1)c1ccccc1` (stereo not drawn) [JRM-20, (4E,4’E)-7,7’-disulfanediylbis(3-hydroxy-N-methyl-N-phenylhept-4-enamide)]: on HDAC2 (without DTT (non-reduced dimer)), the IC50 was 12.9 µM.

Take `CN(C(=O)C[C@@H](O)/C=C/CCS(=O)O)c1ccccc1` [JRM-28a]: at HDAC6, the “Hill coefficient HDAC6 (fluorimetric)” value was −5.116.

Take `CN(C(=O)C[C@@H](O)/C=C/CCS)c1ccccc1` [JRM-28b]: the IC50 on HDAC2 (in the presence of DTT (reduced)) was 2.7 µM and 2.71 µM.

Source of the values: PMC11640089, “JRM-28, a Novel HDAC2 Inhibitor, Upregulates Plasticity-Associated Proteins in Hippocampal Neurons and Enhances Morphological Plasticity via Activation of CREB: Implications for Alzheimer’s Disease” (Cells, 2024).
